Results reported in publication PMC3500847 (ChemMedChem, 2012).
Bridge positions count the residues as written; N and C are the ends. Square brackets hold non-standard residues; d marks the D form. Peptide text beside a SMILES is read from it. d(aThr) = C[C@@H](O)[C@@H](N)C(=O)O; 12Ado = NCCCCCCCCCCCC(=O)O

Key:
[1] = tested on: S. aureus ATCC 700699 (Mu50, VRSA); assay type: cell-based, Staphylococcus aureus
[2] = tested on: S. aureus ATCC 33591 (MRSA); assay type: cell-based, Staphylococcus aureus
[3] = tested on: HepG2 cancer cell line; assay type: cell-based, human
[4] = tested on: human liver embryonic cell line WRL 68; assay type: cell-based
[5] = tested on: variety of fungi, including Candida albicans and Cryptococcus neoformans, and Gram-positive bacteria such as S. aureus; details: range over fungi and Gram-positive bacteria; cited from earlier work

MIC [1] [µg/mL] | MIC [2] [µg/mL] | Molecule | cytotoxicity [3] | cytotoxicity [4] | MICs [5] [µg/mL]
>128 | >128 | CC(C)[C@@H]1NC(=O)[C@@H](C(C)C)NC(=O)[C@@H](NC(=O)CCCCCCCCCCCN)[C@@H](C)OC(=O)[C@@H](C)NC(=O)[C@@H](CC(N)=O)NC(=O)[C@@H]([C@@H](C)O)NC1=O [compound 4] (H-[12Ado]T[dV]V[d(aThr)][dN][dA]; ester 2-C) |  |  | 
>128 | >128 | CC(C)[C@@H]1NC(=O)[C@@H](C(C)C)NC(=O)[C@@H](NC(=O)CCCCCCCCCCCN)[C@@H](C)OC(=O)[C@@H](C)NC(=O)[C@@H](CC(N)=O)NC(=O)[C@@H]([C@H](C)O)NC1=O [compound 3] (H-[12Ado]T[dV]V[dT][dN][dA]; ester 2-C) |  |  | 

The next lines start with the molecule.

Molecule | MIC [1] [µg/mL] | MIC [2] [µg/mL] | cytotoxicity [3] | cytotoxicity [4] | MICs [5] [µg/mL]
CC(=O)N[C@@H]1C(=O)N[C@H](C(C)C)C(=O)N[C@@H](C(C)C)C(=O)N[C@H]([C@H](C)O)C(=O)N[C@H](CC(N)=O)C(=O)N[C@H](C)C(=O)O[C@@H]1C [compound 1] (Ac-T[dV]V[dT][dN][dA]; ester 1-C) | >128 | >128 | did not show appreciable cytotoxicity | did not show appreciable cytotoxicity | 
fusaricidin A |  |  |  |  | 0.78 to 3.12
CC(=O)N[C@@H]1C(=O)N[C@H](C(C)C)C(=O)N[C@@H](C(C)C)C(=O)N[C@H]([C@@H](C)O)C(=O)N[C@H](CC(N)=O)C(=O)N[C@H](C)C(=O)O[C@@H]1C [compound 2] (Ac-T[dV]V[d(aThr)][dN][dA]; ester 1-C) | >128 | >128 |  |  | 
